# Results: US9884122B2, “Small molecule drug conjugates” (Philochem AG, priority 2014, dated 2018)
# Key:
# [1] = molecular target: T1, recombinant carbonic anhydrase IX (Homo sapiens, UniProt Q16790); assay: Determination of ligand KD by fluorescence polarization; assay type: binding; conditions: for Kd: 5 nM labeled ligand, 1 h room temperature, read-out: KD for fluorophore-linker-ligand complexes
# T1 construct: Recombinant CAIX was expressed as described previously; made in house
# Experimental: Fluorescently labeled ligands (2 mg) were dissolved in DMSO (100 μL) and diluted 1:2000 into PBS pH 7.4 to determine the stock's concentration by absorbance measurement at 495 nm (ε495=72,000 M^−1 cm^−1). Recombinant CAIX was expressed as described previously^[3], dialyzed against assay buffer (50 mM tris(hydroxymethyl)aminomethane [TIRS] pH 7.4 containing 1 mM ZnSO4) at 4° C. overnight and the protein concentration determined by absorbance measurement at 280 nm (ε280=35,075 M^−1 cm^−1).
# In a black 384-well plate in assay buffer (30 μL) fluorescently labeled ligands (5 nM from appropriately diluted DMSO stocks, final DMSO content adjusted to 0.001%) were incubated with increasing concentrations of recombinant carbonic anhydrase IX (4.6 μM to 140 pM in steps of 1:2) for 1 h at room temperature. The fluorescence polarization (FP) was measured on a Spectra Max Paradigm multimode plate reader (Molecular Devices). Experiments were performed in triplicate, mean FP values divided by the top-plateau signal and the fractional FP value fit to equation (2) using KaleidaGraph 4.0 (Synergy Software). FP=([P]0+[L]0+KD)−√{square root over (([P]0+[L]0+KD)^2−4[P]0[L]0)} (2)
# Where FP is the fractional fluorescence polarization, [P]0 the total protein concentration, [L]0 the total concentration of the fluorescently labeled ligand and KD the dissociation constant in nM.
# [2] = system: subcutaneous SKRC52 tumors; conditions: 3 nmol intravenous, 1-12 h
# Experimental: SKRC52 cells were grown to 80% confluence and detached with Trypsin-EDTA 0.05% (Invitrogen). Cells were washed with PBS pH 7.4 once, counted and resuspended in PBS to a final concentration of 6.7×10^7 cells mL^−1. Athymic balb/c nu/nu mice, 8-10 weeks of age (Charles River) were anesthetized with isofluorane and aliquots of 1×10^7 cells (150 μL of suspension) injected subcutaneously into their lower back.
# Food and water was given ad libitum during that period.
# Mice were subsequently sacrificed by cervical dislocation.
# [3] = molecular target: T1, recombinant carbonic anhydrase IX; assay: biochemical; assay type: binding
# Experimental: The FP was measured on a Spectra Max Paradigm multimode plate reader (Molecular Devices). Experiments were performed in triplicate and data analyzed as described by Wang and co-workers.^[4]
# [4] = system: CAIX expressing SKRC52 cells; assay: In vitro cytotoxicity assay (MTS); assay type: cell-based, human
# Experimental: SKRC52 or A549 cells were seeded in 96-well plates in their appropriate culture medium (100 μL) at a density of 5000 cells per well and allowed to grow for 24 h. The medium was replaced with medium containing different concentrations of test substance (100 μL, 300 nM-15 pM in 1:3 dilution steps) and plates were either:
# (a) incubated for 72 hours in the presence of the toxic substance, or
# (b) incubated for 1 h under standard culture conditions, followed by removal of the medium containing the toxic substance, gently washing the cells fresh medium once and adding new medium (100 μL) and incubating for 72 h under culture conditions.
# MTS cell viability dye (20 μL, Promega) was added, the plates were incubated for 1 h under culture conditions and the absorbance at 490 nm measured on a Spectra Max Paradigm multimode plate reader (Molecular Devices). Experiments were performed in triplicate and average cell viability calculated as measured background corrected absorbance divided by the absorbance of untreated control wells. EC50 values were determined by fitting data to the four-parameter logistic equation.
# [5] = system: SKRC52 xenograft tumors
# Experimental: SKRC52 xenograft tumors were implanted into balb/c nu/nu mice (Charles River) as described above. […] 5 doses of 4 nmol 7a,b, 8a,b or 7 doses of 70 nmol 9a,b each in PBS pH 7.4 (150 μL) containing 5% DMSO were given on 5 or 7 consecutive days and one group was treated with vehicle (5% DMSO in PBS pH 7.4). In the case of 7-9b an equimolar amount of AAZ was added to the injection solution to control for a possible antitumor activity of CAIX inhibitors. Sorafenib and sunitnib were administered at a standard dose of 30 mg/kg as described previously.^[5] Animals were weighed and tumor sizes measured daily and the tumor volume calculated according to the formula (long side)×(short side)^2×0.5. […] Prism 6 (GraphPad Software) was used for data analysis (regular two-way ANOVA with the Bonferroni test).
# [6] = system: CAIX-expressing SKRC52 xenografts; conditions: mouse, in vivo
# [7] = Condition (b): 1 h exposure, wash, then 72 h, concentrations up to 300 nM
# [8] = Homo sapiens, SK-RC-52, Condition (a): incubated 72 hours in the presence of the toxic substance
# [9] = Homo sapiens, SK-RC-52, Condition (b): 1 h exposure, wash, then 72 h, concentrations up to 300 nM
smiles,measurement,setting,value
"NS(=O)(=O)c1nnc(NC(=O)CCC(=O)NCCOCCOCCNC(=S)Nc2ccc(-c3c4ccc(=O)cc-4oc4cc(O)ccc34)c(C(=O)O)c2)s1 [Compound 1a, N1-(2-(2-(2-aminoethoxy)ethoxy)ethyl)-N4-(5-sulfamoyl-1,3,4-thiadiazol-2-yl)succinamide fluorescein conjugate]",Kd,[1],12.6 ± 1 nM
"CC(C)[C@@H](C(=O)NCCOCCOCCNC(=S)Nc1ccc(-c2c3ccc(=O)cc-3oc3cc(O)ccc23)c(C(=O)O)c1)n1cc(-c2ccc(S(N)(=O)=O)cc2)nn1 [Compound 2a, (S)—N-(2-(2-(2-aminoethoxy)ethoxy)ethyl)-3-methyl-2-(4-(4-sulfamoylphenyl)-1H-1,2,3-triazol-1-yl)butanamide fluorescein conjugate]",Kd,[1],18.1 ± 1.3 nM
"CC(C)[C@@H](C(=O)NCCOCCOCCNC(=O)CCCCc1ccc(C2=C(/C=C/C3=[N+](CCCCS(=O)(=O)O)c4ccc(S(=O)(=O)O)cc4C3(C)C)CCC/C2=C\C=C2\N(CCCCS(=O)(=O)O)c3ccc(S(=O)(=O)[O-])cc3C2(C)C)cc1)n1cc(-c2ccc(S(N)(=O)=O)cc2)nn1 [Compound 2c, (S)—N-(2-(2-(2-aminoethoxy)ethoxy)ethyl)-3-methyl-2-(4-(4-sulfamoylphenyl)-1H-1,2,3-triazol-1-yl)butanamide IRDye750 conjugate]",tumor targeting by near infrared imaging,[2],the tumor was barely visible
"NS(=O)(=O)c1ccc(Nc2nc(Cl)nc(NCCOCCOCCNC(=S)Nc3ccc(-c4c5ccc(=O)cc-5oc5cc(O)ccc45)c(C(=O)O)c3)n2)cc1 [Compound 3a, 4-((4-((2-(2-(2-aminoethoxy)ethoxy)ethyl)amino)-6-chloro-1,3,5-triazin-2-yl)amino)benzenesulfonamide fluorescein conjugate]",Kd,[1],46.8 ± 1.2 nM
"NS(=O)(=O)c1ccc(C(=O)NCCOCCOCCNC(=S)Nc2ccc(-c3c4ccc(=O)cc-4oc4cc(O)ccc34)c(C(=O)O)c2)cc1 [Compound 5a, N-(2-(2-(2-aminoethoxy)ethoxy)ethyl)-4-sulfamoylbenzamide fluorescein conjugate]",Kd,[1],218 ± 9 nM
"CC(C)(C)OC(=O)NCCOCCOCCNC(=S)Nc1ccc(-c2c3ccc(=O)cc-3oc3cc(O)ccc23)c(C(=O)O)c1 [Compound 6a, Tert-butyl (2-(2-(2-aminoethoxy)ethoxy)ethyl)carbamate fluorescein conjugate]",binding to CAIX (in words),[1],did not bind to the CAIX
"COc1cc2[nH]cc(C(=O)N3C[C@@H](CCl)c4c3cc(OC(=O)OCCSSC[C@H](NC(=O)[C@H](CC(=O)O)NC(=O)[C@H](CCCNC(=N)N)NC(=O)[C@H](CC(=O)O)NC(=O)CCCCn3cc(CCCC(=O)O)nn3)C(=O)O)c3ccccc43)c2cc1OCCN(C)C [Compound 7b, Untargeted CBI Carbonate]",binding affinity for recombinant CAIX in vitro (in words),[3],do not exhibit strong binding
same,Kd,"[3]; unlabeled drug-linker conjugate, read-out: KD (competitive fluorescence polarization)",> 1000 nM
same,EC50,[4]; [7],1.4 ± 0.3 nM
"COc1cc2[nH]cc(C(=O)N3C[C@@H](CCl)c4c3cc(OC(=O)N(C)CCSSC[C@H](NC(=O)[C@H](CC(=O)O)NC(=O)[C@H](CCCNC(=N)N)NC(=O)[C@H](CC(=O)O)NC(=O)CCCCn3cc(CCCC(=O)O)nn3)C(=O)O)c3ccccc43)c2cc1OCCN(C)C [Compound 8b, Untargeted CBI Carbamate]",binding affinity for recombinant CAIX in vitro (in words),[3],do not exhibit strong binding
same,tumor growth effect,"[5]; 5 doses of 4 nmol on 5 consecutive days, 7a vs vehicle p<0.0001, vs 7b plus AAZ p<0.05",did not lead to any retardation in tumor growth
"COc1cc2cc(c1Cl)N(C)C(=O)C[C@H](OC(=O)[C@H](C)N(C)C(=O)CCSSC[C@H](NC(=O)[C@H](CC(=O)O)NC(=O)[C@H](CCCNC(=N)N)NC(=O)[C@H](CC(=O)O)NC(=O)CCCCn1cc(CCCC(=O)O)nn1)C(=O)O)[C@@]1(C)O[C@H]1[C@H](C)[C@@H]1C[C@@](O)(NC(=O)O1)[C@H](OC)/C=C/C=C(\C)C2 [Compound 9b, Untargeted DM1 Conjugate]",binding affinity for recombinant CAIX in vitro (in words),[3],do not exhibit strong binding
"COc1cc2[nH]c(C(=O)N3C[C@@H](CCl)c4c3cc(O)c3ccccc43)cc2cc1OCCN(C)C [Compound 14, Seco CBI Drug]",EC50,[4]; [8],0.055 ± 0.005 nM
same,EC50,[4]; [9],1 ± 0.1 nM
CC1(C)C(/C=C/C2=C(c3ccc(CCCCC(=O)NCCOCCOCCNC(=O)[C@H](CCCCNC(=O)[C@H](CC(=O)O)NC(=O)[C@H](CC(=O)O)NC(=O)CCCCn4cc(CCCC(=O)Nc5nnc(S(N)(=O)=O)s5)nn4)NC(=O)[C@H](CC(=O)O)NC(=O)[C@H](CC(=O)O)NC(=O)CCCCn4cc(CCCC(=O)Nc5nnc(S(N)(=O)=O)s5)nn4)cc3)C(=C/C=C3/N(CCCCS(=O)(=O)O)c4ccc(S(=O)(=O)O)cc4C3(C)C)/CCC2)=[N+](CCCCS(=O)(=O)[O-])c2ccc(S(=O)(=O)O)cc21 [Compound B4],accumulation in the tumour (imaging),[6],strongly accumulated in the tumour
same,"integrated fluorescence signal in the tumour, of its initial value",[6],40%
same,residence on the tumour,[6],significantly longer residence on the tumour
same,tumour:lung ratio,[6],higher tumour:lung ratio than B3
"COc1cc2cc(c1Cl)N(C)C(=O)C[C@H](OC(=O)[C@H](C)N(C)C(=O)CCS)[C@]1(C)O[C@H]1[C@H](C)[C@@H]1C[C@@](O)(NC(=O)O1)[C@H](OC)/C=C/C=C(\C)C2 [DM1, reference compound]",EC50,[4]; [7],45 ± 10 nM
"COc1cc2cc(c1Cl)N(C)C(=O)C[C@@H](OC(=O)[C@@H](C)NC(=O)CCSC)[C@]1(C)O[C@@H]1[C@@H](C)[C@@H]1C[C@](O)(NC(=O)O1)[C@@H](OC)/C=C/C=C(\C)C2 [DM1SMe, DM1-SMe, reference compound]",EC50,[4]; [8],0.5 nM
same,EC50,[4]; [9],5.8 ± 1.1 nM
"CNC(=O)c1cc(Oc2ccc(NC(=O)Nc3ccc(Cl)c(C(F)(F)F)c3)cc2)ccn1 [sorafenib, reference compound]",antitumor effect of standard drugs,[5]; standard dose of 30 mg/kg,"neither sorafenib nor sunitinib, which represent the most commonly used chemotherapeutic agents for the treatment of kidney cancer, exhibited any detectable antitumor effect"
